The results in this text go back to article PMC4057667, “Study on Biopharmaceutics Classification and Oral Bioavailability of a Novel Multikinase Inhibitor NCE for Cancer Therapy” (International Journal of Molecular Sciences, 2014).

“And” between values parts separate entries of the source, which are not always exact repeats. Equal values may be shown once.

This data set deals with rat duodenum, jejunum and ileum. As to the kind of experiment: In situ single-pass intestinal perfusion (SPIP). Here is the method: The blank perfusion buffer solution was composed of 9.80 g Hanks’ Balanced Salts, 5.96 g 4-2(Hydroxyethyl) piperazine-1-ethanesulfonic acid (HEPES), 1.16 g NaCl, 3.50 g D-glucose and 0.37 g NaHCO3. The pH was adjusted to 6.5. […] The perfusate containing 2 μg/mL of NCE with and without 0.4% SDS was applied to three intestinal segments to investigate the effect of SDS on intestinal absorption of NCE. To examine whether there was any concentration-dependent characteristics or site specific absorption of NCE, 2, 20 and 40 μg/mL of NCE containing 0.4% SDS (w/v) were also studied in three intestinal segments using the same rat perfusion model.
Male Sprague-Dawley rats (170–230 g) were obtained from the Laboratory Animal Center, Sichuan University (Chengdu, China). Prior to the experiment, animals were fasted for at least 18 h with free access to water. All animal studies were approved and supervised by the State Key Laboratory of Biotherapy Animal Care and Use Committee (Sichuan University, Chengdu, Sichuan, China). Then, single pass intestine perfusion studies were conducted according to the literature. In brief, rats were anaesthetized by pentobarbital sodium (i.p., […]) and placed on a homeothermic pad to maintain their body temperature. After making a 3–4 cm midline abdominal incision, the small intestinal was exposed. The duodenum, jejunum and ileum were isolated as follows: duodenum segment beginning from 1 cm away from pylorus, jejunum segment beginning from 20 cm away from pylorus and ileum segment beginning at the site 20 cm upwards caecum. Each intestinal segment was approximately 10 cm long. After removing the intestinal content by rinsing with warm saline, two glass cannulas were inserted to the distal and proximal end of the segment. Then, the intestinal segments of interest were connected to a perfusion pump and the outlet tubing was placed at the same height as the inlet. The intestine was handled carefully to maintain an intact blood supply.
The segments were rinsed with perfusate at the rate of 1.0 mL/min for 10 min, and then perfused at the rate of 0.2 mL/min for 30 min to maintain a steady-state. The time was set zero immediately when the perfusion started. The outlet perfused samples were collected every 15 min until 120 min. Then, the samples were centrifuged at 1.3 × 10^4 rpm for 10 min. The supernatant was analyzed by HPLC. The length of tested segments was measured and rats were euthanized after experiment.
Peff is the quantitative parameter estimating the passage rate of a solute across a membrane. It was calculated from the steady-state concentration of NCE in the perfusate. The drug concentration in the perfusate was corrected for changes in the water flux. Meanwhile, the density corrected gravimetric method was employed to calculate the net water flux across the incubated intestinal segment. A known volume of perfusate was weighed using an electronic weighing balance to determine the density of the collected samples. After correcting for water flux, the drug concentration in the effluent perfusate (Cout(cor)), was calculated as following.
(3) Cout(cor)=Cout×Qout/Qin
where Cout is the concentration of tested drug in the effluent perfusates, Qin and Qout are the inlet and outlet flow rate (mL/min), respectively, which are adjusted for liquid density (mL/min).
The calculation of permeability across rat intestinal segment was performed from the intestinal perfusate samples collected over 15–120 min (steady state) using the following equation).
(4) Peff=-Qin ln(Cout(cor)/Cin)/2πrl

For the compound `CNC(=O)c1cc(Oc2ccc(NC(=O)c3cccc(C(F)(F)F)c3)cc2)ccn1.Cc1ccc(S(=O)(=O)O)cc1.O` [NCE, 2-methylcarbamoyl-4-{4-[3-(trifluoromethyl)benzamido]phenoxy} pyridinium 4-methylbenzenesulfonate monohydrate], the Peff is, setting by setting: (Duodenum, 2 μg/mL, with 0.4% SDS, n = 3) 0.26 ± 0.25 ^N.S. 10^−4 cm/s; (Duodenum, 2 μg/mL, without SDS, n = 3) 0.26 ± 0.29 10^−4 cm/s; (Duodenum, perfusate 2 μg/mL, 0.4% SDS, n = 6) 0.21 ± 0.18 10^−4 cm/s; (Duodenum, perfusate 20 μg/mL, 0.4% SDS, n = 6) 0.34 ± 0.12 10^−4 cm/s; (Duodenum, perfusate 40 μg/mL, n = 6) 0.49 ± 0.29 ^* 10^−4 cm/s and 0.49 ± 0.29 10^−4 cm/s; (Ileum, 2 μg/mL, with 0.4% SDS, n = 3) 0.22 ± 0.15 ^N.S. 10^−4 cm/s. The Peff by setting is: (Ileum, 2 μg/mL, without SDS, n = 3) 0.23 ± 0.18 ^N.S. 10^−4 cm/s; (Ileum, perfusate 2 μg/mL, 0.4% SDS, n = 6) 0.23 ± 0.25 ^N.S. 10^−4 cm/s; (Ileum, perfusate 20 μg/mL, 0.4% SDS, n = 6) 0.29 ± 0.10 ^N.S. 10^−4 cm/s; (Ileum, perfusate 40 μg/mL, n = 6) 0.52 ± 0.28 ^N.S. ^* 10^−4 cm/s and 0.52 ± 0.28 ^N.S. 10^−4 cm/s; (Jejunum, 2 μg/mL, with 0.4% SDS, n = 3) 0.25 ± 0.22 ^N.S. 10^−4 cm/s; (Jejunum, 2 μg/mL, without SDS, n = 3) 0.25 ± 0.24 ^N.S. 10^−4 cm/s. Besides, the Peff reads like this: (Jejunum, perfusate 2 μg/mL, 0.4% SDS, n = 6) 0.20 ± 0.30 ^N.S. 10^−4 cm/s; (Jejunum, perfusate 20 μg/mL, 0.4% SDS, n = 6) 0.30 ± 0.15 ^N.S. 10^−4 cm/s; (Jejunum, perfusate 40 μg/mL, n = 6) 0.56 ± 0.26 ^N.S. ^* 10^−4 cm/s and 0.56 ± 0.26 ^N.S. 10^−4 cm/s. Besides, the “transportation mechanism in intestine” value (Peff unchanged from 2–40 μg/mL) is “passive diffusion”. In addition, the permeability class entry (from Peff compared with theophylline, ranitidine and propranolol) is recorded as “high permeability”. In addition, under “three segments, three concentrations, found in jejunum”, the “minimum of Peff” value was 20 ×10⁻⁶ cm/s.
